Source: paper PMC3413639 (PLoS ONE, 2012)
Where two headings read alike, the source gives them in different places.

How the values were obtained:
[1] = Brain-to-plasma ratio of Wf-516; type: in vivo; details: at the time of reaching maximal plasma concentration, unpublished data
5-HT1A receptors [2] = biological target: T1, 5-HT1A receptors (Rattus norvegicus, UniProt P19327); parameters: method as in earlier work; details: rat hippocampal homogenates; read-out: Ki (in vitro estimate); cited from earlier work
T1 sequence (P19327 1-422): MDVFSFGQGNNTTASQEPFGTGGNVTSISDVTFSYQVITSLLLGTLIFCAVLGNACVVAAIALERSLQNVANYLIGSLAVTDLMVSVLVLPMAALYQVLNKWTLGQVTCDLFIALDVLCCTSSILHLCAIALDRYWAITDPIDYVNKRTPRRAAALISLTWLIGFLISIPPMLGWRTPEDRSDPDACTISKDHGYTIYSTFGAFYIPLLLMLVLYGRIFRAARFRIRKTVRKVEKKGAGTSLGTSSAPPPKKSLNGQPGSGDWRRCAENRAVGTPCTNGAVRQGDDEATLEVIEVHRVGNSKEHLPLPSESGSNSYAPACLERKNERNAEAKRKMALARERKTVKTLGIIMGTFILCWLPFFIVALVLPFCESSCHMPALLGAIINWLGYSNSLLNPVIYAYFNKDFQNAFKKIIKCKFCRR

5-HTTs = tested on: 5-HTTs; parameters: method as in PMID 19236731; details: cited from earlier work
5-HT1A receptors [3] = biological target: T1, 5-HT1A receptors; assay: [11C]WAY-100635-PET of rats treated with 5,7-DHT, a toxicant for 5-HT neurons; details: 30 mg/kg oral
5-HT1A receptors [4] = biological target: T1, 5-HT1A receptors; assay: In vitro ARG, inhibition of [11C]WAY-100635 binding in rat brain sections; parameters: Twenty-micrometer-thick frozen brain sections were preincubated; from tissue; host or cells: rat brain (hippocampus and raphe nucleus): frozen sections or living animals; details: for Ki: 0.9 nM [11C]WAY-100635
Method: Rats were sacrificed by decapitation. Twenty-micrometer-thick frozen brain sections were preincubated for 30 min in 50 mM Tris-HCl (pH 7.4) containing 1 mM MnCl2. […] Subsequently, the sections were rinsed twice with ice-cold Tris-HCl buffer for 5 min and then desalted with ice-cold distilled water for 10 sec. These samples were warmly blow-dried and placed in contact with an imaging plate (Fuji Film, Tokyo, Japan) for 60 min. Signals on the imaging plate were detected by BAS5000 system (Fuji Film).

5-HT1A receptors [5] = biological target: T1, 5-HT1A receptors; assay: Ex vivo ARG, 5-HT1A receptor occupancy after drug administration; type: in vivo; parameters: Twenty-micrometer-thick frozen brain sections were preincubated; from tissue; host or cells: rat brain (hippocampus and raphe nucleus): frozen sections or living animals; details: for ED50: rat, po, ex vivo ARG, read-out: ED50 (5-HT1A receptor occupancy)
Method: Animals were then killed by decapitation 5 h and 30 min after their administration, respectively. Autoradiographic analysis was performed using procedures similar to in vitro ARG except for incubation temperature (37°C) and times for preincubation (30 sec), incubation (5 min) and rinsing (1 min). […] The doses of these drugs at half-maximal effect (ED50) were determined according to the following relationship: [drawing 2] where D is the dose of the drug.

5-HT1A receptors [6] = biological target: T1, 5-HT1A receptors; assay: Autoradiographic [35S]GTPγS binding in rat brain sections; type: biochemical; parameters: Twenty-micrometer-thick frozen brain sections were preincubated; from tissue; host or cells: rat brain (hippocampus and raphe nucleus): frozen sections or living animals; details: raphe nucleus; 10 µM; p<0.01; increment smaller than that by 8-OH-DPAT
Method: Autoradiographic procedures were performed as described previously, with some modifications. The sections were preincubated for 15 min in 50 mM 4-(2-hydroxyethyl)-1-piperazineethanesulfonic acid (HEPES; pH 7.4) containing 10 mM NaCl, 3 mM MgCl2 and 0.2 mM ethylene glycol tetraacetic acid. A second preincubation using the same buffer containing 2 mM GDP was performed for 15 min. The sections were subsequently incubated in the same buffer containing 2 mM GDP, 0.2 mM dithiothreitol and 0.04 nM [^35S]GTPγS for 120 min. Basal [^35S]GTPγS binding was defined in the absence of test drugs. […] Nonspecific binding was estimated using 10 µM nonradioactive GTPγS. The incubation was terminated by ice-cold 50 mM HEPES (pH 7.0). The sections were desalted with ice-cold distilled water, dried, and placed in contact with an imaging plate for 2 days. Signal detection and image analysis were performed as described above.

5-HT1A receptors [7] = biological target: T1, 5-HT1A receptors; assay: [18F]MPPF PET, BPND and 5-HT1A receptor occupancy; type: in vivo; parameters: Rats were sacrificed by decapitation; Twenty-micrometer-thick frozen brain sections were preincubated; from tissue; host or cells: rat brain (hippocampus and raphe nucleus): frozen sections or living animals; details: mean ± S.E.; for receptor occupancy at 30 mg/kg: rat

- Kp [1]: ~2
- Blockage of 5-HT1A receptors by excess amounts of drug (5-HT1A receptors [4]; hippocampus and raphe nucleus, up to 1000 nM): near-complete blockage
- Ki (5-HT1A receptors [4]; hippocampus): 8.1 nM
- Ki (5-HT1A receptors [4]; raphe nucleus): 7.9 nM
- 5-HT1A receptor binding (occupancy), dose-dependent up to (5-HT1A receptors [5]; oral, 5 h after administration, irrespective of region): approximately 80%
- ED50 (5-HT1A receptors [5]; hippocampus): 5.3 mg/kg
- ED50 (5-HT1A receptors [5]; raphe nucleus): 4.2 mg/kg
- [35S]GTPγS binding compared with 1 µM WAY-100635 (5-HT1A receptors [6]): significantly increased
- BPND Hippocampus (5-HT1A receptors [7]; 30 mg/kg): 1.100±0.015
- BPND Raphe (5-HT1A receptors [7]; 30 mg/kg): 0.227±0.027
- receptor occupancy at 30 mg/kg (5-HT1A receptors [7]; read-out: Occupancy (%) Hippocampus): 23.3 ± 1.5%
- receptor occupancy at 30 mg/kg (5-HT1A receptors [7]; read-out: Occupancy (%) Raphe): 45.7 ± 6.5%
Structure (SMILES): Cc1nnc(-c2cc3c(OC[C@@H](O)CN4CCC(c5ccc(Cl)c(Cl)c5)CC4)cccc3o2)o1.Cl [Wf-516, (2S)-1-[4-(3,4-dichlorophenyl)piperidin-1-yl]-3-[2-(5-methyl-1,3,4-oxadiazol-2-yl)benzo[b]furan-4-yloxy]propan-2-ol monohydrochloride]
- Ki (5-HT1A receptors [2]): 7.4 nM
- ED50 for blockade of 5-HTTs (5-HTTs; previous PET study): 3 mg/kg
- Occupancy of 5-HTT among regions (5-HTTs; previous observation): homogenous among regions
- Change of BPND in 5,7-DHT-treated rats (5-HT1A receptors [3]; hippocampus, compared with baseline): significant decrease of BPND
- Change of BPND in 5,7-DHT-treated rats (5-HT1A receptors [3]; raphe nucleus): no additional reduction of BPND
